According to ChEMBL document CHEMBL1138487, “Tacripyrines, the first tacrine-dihydropyridine hybrids, as multitarget-directed ligands for the treatment of Alzheimer's disease” (J Med Chem, 2009):

Legend:
[1] = molecular target: Cholinesterase (Homo sapiens, UniProt P06276)
Description: Inhibition of human serum BChE by Ellman's method

[2] = molecular target: T1, Acetylcholinesterase (Homo sapiens, UniProt P22303)
Description: Inhibition of human serum AChE by Ellman's method

[3] = molecular target: Acetylcholinesterase (Electrophorus electricus, UniProt O42275)
Description: Inhibition of electric eel AChE by Rappaport method

[4] = in vitro; details: pig, PAMPA
Description: Permeability across porcine brain lipid coated polyvinylidene fluoride membrane by PAMPA

[5] = Inhibition of amyloid beta (1-42) self-aggregation at 1:1 drug to amyloid beta (1 to 42) ratio after 24 hrs by thioflavin T fluorescence method; details: concentration not given here
[6] = molecular target: T1, Acetylcholinesterase; details: 100 uM
Description: Inhibition of human AChE-induced amyloid beta (1-40) aggregation at 100 uM after 24 hrs by thioflavin T fluorescence method

T1 sequence (P22303 whole entry): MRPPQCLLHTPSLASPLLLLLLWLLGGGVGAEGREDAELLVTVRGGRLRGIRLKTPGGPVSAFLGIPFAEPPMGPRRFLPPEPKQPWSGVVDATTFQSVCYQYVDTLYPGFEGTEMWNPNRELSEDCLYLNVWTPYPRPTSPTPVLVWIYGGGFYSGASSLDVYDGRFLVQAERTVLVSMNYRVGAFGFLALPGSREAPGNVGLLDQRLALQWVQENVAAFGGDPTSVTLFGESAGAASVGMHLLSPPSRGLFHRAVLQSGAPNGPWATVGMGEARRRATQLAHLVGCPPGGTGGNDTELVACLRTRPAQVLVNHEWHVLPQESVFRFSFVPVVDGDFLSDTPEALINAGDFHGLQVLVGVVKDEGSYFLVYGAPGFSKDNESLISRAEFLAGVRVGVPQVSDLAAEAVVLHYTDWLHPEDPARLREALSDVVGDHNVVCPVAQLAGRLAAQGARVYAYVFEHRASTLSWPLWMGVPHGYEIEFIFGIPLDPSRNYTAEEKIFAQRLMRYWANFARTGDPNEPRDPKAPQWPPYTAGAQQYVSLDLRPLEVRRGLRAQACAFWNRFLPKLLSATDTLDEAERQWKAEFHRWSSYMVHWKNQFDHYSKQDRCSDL
Cholinesterase, sequence (P06276 whole entry): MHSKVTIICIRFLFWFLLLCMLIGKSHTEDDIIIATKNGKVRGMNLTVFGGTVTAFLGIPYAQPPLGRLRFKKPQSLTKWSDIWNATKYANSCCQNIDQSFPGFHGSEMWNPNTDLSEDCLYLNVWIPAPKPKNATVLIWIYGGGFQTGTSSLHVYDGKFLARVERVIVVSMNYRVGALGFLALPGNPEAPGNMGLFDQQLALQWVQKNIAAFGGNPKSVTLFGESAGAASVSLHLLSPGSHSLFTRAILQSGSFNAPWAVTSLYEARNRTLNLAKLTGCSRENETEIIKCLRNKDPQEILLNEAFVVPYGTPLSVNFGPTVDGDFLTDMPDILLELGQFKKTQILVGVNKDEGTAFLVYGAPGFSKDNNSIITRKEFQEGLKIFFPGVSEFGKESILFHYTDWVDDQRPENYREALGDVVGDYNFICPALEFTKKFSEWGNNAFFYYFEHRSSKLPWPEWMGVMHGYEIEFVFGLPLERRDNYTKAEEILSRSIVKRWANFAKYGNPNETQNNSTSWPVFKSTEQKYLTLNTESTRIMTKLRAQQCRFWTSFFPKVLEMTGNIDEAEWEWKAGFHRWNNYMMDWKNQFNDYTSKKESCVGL
Acetylcholinesterase (Electrophorus electricus, UniProt O42275), sequence (O42275 whole entry): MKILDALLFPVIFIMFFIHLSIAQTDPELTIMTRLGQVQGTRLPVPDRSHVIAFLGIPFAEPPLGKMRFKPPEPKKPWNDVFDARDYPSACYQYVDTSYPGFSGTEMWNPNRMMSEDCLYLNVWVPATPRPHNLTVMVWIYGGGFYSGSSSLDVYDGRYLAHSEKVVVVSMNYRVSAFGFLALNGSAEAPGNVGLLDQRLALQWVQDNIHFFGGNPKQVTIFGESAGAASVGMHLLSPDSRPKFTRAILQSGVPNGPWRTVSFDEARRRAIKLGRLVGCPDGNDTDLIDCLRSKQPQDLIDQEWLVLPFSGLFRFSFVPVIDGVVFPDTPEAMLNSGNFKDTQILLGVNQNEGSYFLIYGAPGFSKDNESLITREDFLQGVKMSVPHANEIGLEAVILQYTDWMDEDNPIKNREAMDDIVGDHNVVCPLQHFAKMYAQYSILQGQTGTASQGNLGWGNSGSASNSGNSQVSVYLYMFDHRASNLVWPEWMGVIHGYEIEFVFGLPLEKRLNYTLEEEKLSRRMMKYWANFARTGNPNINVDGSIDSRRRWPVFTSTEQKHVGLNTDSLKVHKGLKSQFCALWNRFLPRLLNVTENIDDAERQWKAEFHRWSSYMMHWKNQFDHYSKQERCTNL

Structure (SMILES)	IC50 [1] [nM]	IC50 [2] [nM]	IC50 [3] [nM]	Papp [4] [×10⁻⁶ cm/s]	also measured
CCOC(=O)C1=C(C)Nc2nc3c(c(N)c2C1c1ccc(OC)c(OC)c1)CCCC3 (stereo unspecified)	> 100000	45	103	–	–
CCOC(=O)C1=C(C)Nc2nc3c(c(N)c2C1c1ccncc1)CCCC3 (stereo unspecified)	> 100000	223	220	–	–
CCOC(=O)C1=C(C)Nc2nc3c(c(N)c2C1c1cccnc1)CCCC3 (stereo unspecified)	> 100000	158	47	–	–
C[C@]12CCC(=O)C=C1CC[C@@H]1[C@@H]2[C@@H](O)C[C@]2(C=O)[C@@H](C(=O)CO)CC[C@@H]12 [ALDOSTERONE]	–	–	–	0.6	–
CCn1cc(C(=O)O)c(=O)c2cc(F)c(N3CCNCC3)nc21 [ENOXACIN]	–	–	–	0.6	–
CN(C)CCCN1c2ccccc2Sc2ccccc21 [PROMAZINE]	–	–	–	7.7	–
CC(=O)[C@H]1CC[C@H]2[C@@H]3CCC4=CC(=O)CC[C@]4(C)[C@H]3CC[C@]12C [PROGESTERONE]	–	–	–	6.6	–
CCOC(=O)C1=C(C)Nc2nc3c(c(N)c2C1c1ccc(OC)cc1)CCCC3 (stereo unspecified)	–	–	–	–	inhibition [5]: 34.9%; inhibition [6]: 30.7%
COc1ccc(CCN2CCC(Nc3nc4ccccc4n3Cc3ccc(F)cc3)CC2)cc1 [ASTEMIZOLE]	–	–	–	6.1	–
CN1C(C(=O)Nc2ccccn2)=C(O)c2ccccc2S1(=O)=O [PIROXICAM]	–	–	–	0.4	–
CCn1cc(C(=O)O)c(=O)c2cc(F)c(N3CCNC(C)C3)c(F)c21 (stereo unspecified) [LOMEFLOXACIN]	–	–	–	0.5	–
CCOC(=O)C1=C(C)Nc2nc3c(c(N)c2C1c1ccc(-c2ccccc2)cc1)CCCC3 (stereo unspecified)	> 100000	71	90	–	–
